From PubChem BioAssay (NCI)
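GI50 = concentration required for 50% inhibition of growth. TGI: concentration producing complete growth inhibition.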

What was measured:
Experiment in all cases: NCI-60 cell line screen, 384-well format
[1] = test system: CCRF-CEM leukemia
[2] = test system: SR leukemia
[3] = test system: HCT-116 colon
[4] = test system: SF-268 CNS
[5] = test system: SK-OV-3 ovarian
[6] = test system: PC-3 prostate
[7] = test system: HL-60(TB) leukemia
[8] = test system: NCI-H460 NSCLC
[9] = test system: HCT-15 colon
[10] = test system: TK-10 renal
[11] = test system: SK-MEL-28 melanoma
[12] = test system: NCI/ADR-RES ovarian
[13] = test system: T-47D breast
[14] = test system: OVCAR-8 ovarian
[15] = test system: IGROV1 ovarian
[16] = test system: MOLT-4 leukemia
[17] = test system: EKVX NSCLC
[18] = test system: A498 renal
[19] = test system: SW-620 colon
[20] = test system: HT29 colon
[21] = test system: ACHN renal
[22] = test system: MDA-MB-468 breast
[23] = test system: SK-MEL-5 melanoma
[24] = test system: BT-549 breast
[25] = test system: SNB-75 CNS
[26] = test system: UO-31 renal
[27] = test system: A549 NSCLC
[28] = test system: MDA-MB-231 breast
[29] = test system: MALME-3M melanoma
[30] = test system: HOP-62 NSCLC
[31] = test system: HS 578T breast
[32] = test system: LOX IMVI melanoma
[33] = test system: NCI-H226 lung
[34] = test system: RPMI-8226 leukemia
[35] = test system: OVCAR-3 ovarian
[36] = test system: SF-539 CNS
[37] = test system: HOP-92 NSCLC
[38] = test system: CAKI-1 renal
[39] = test system: OVCAR-5 ovarian
[40] = test system: K-562 leukemia
[41] = test system: U251 glioblastoma
[42] = test system: SN12C renal
[43] = test system: SNB-19 CNS
[44] = test system: NCI-H23 lung
[45] = test system: MDA-MB-435 melanoma
[46] = test system: HCC-2998 colon
[47] = test system: RXF 393 renal
[48] = test system: NCI-H322M lung
[49] = test system: KM12 colon
[50] = test system: UACC-257 melanoma
[51] = test system: COLO 205 colon
[52] = test system: MCF7 breast
[53] = test system: 786-0 renal
[54] = test system: M14 melanoma
[55] = test system: OVCAR-4 ovarian
[56] = test system: NCI-H522 lung
[57] = test system: DU-145 prostate
[58] = test system: SF-295 CNS

With `CNC(=O)c1cc(Oc2ccc3nc(N[C@@H]4CCCC[C@H]4O)sc3c2)ccn1` the GI50 [1] was 39.3 µM, the TGI [1] was > 100 µM and the GI50 [2] was 10.5 µM. For the same compound, the TGI [2] was 23.3 µM, the GI50 [3] was 53 µM and the TGI [3] was > 100 µM. For the same compound, the GI50 [4] was > 100 µM, the TGI [4] was > 100 µM and the GI50 [5] was > 100 µM. For the same compound, the TGI [5] was > 100 µM, the GI50 [6] was 71.3 µM and the TGI [6] was > 100 µM. The GI50 [7] was 22.2 µM, the TGI [7] was > 100 µM and the GI50 [8] was 48 µM. The TGI [8] was > 100 µM, the GI50 [9] was 34.4 µM and the TGI [9] was > 100 µM. The GI50 [10] was 84.8 µM, the TGI [10] was > 100 µM and the GI50 [11] was > 100 µM. For the same compound, the TGI [11] was > 100 µM, the GI50 [12] was 24.2 µM and the TGI [12] was > 100 µM. For the same compound, the GI50 [13] was 33.4 µM, the TGI [13] was > 100 µM and the GI50 [14] was 59 µM. The TGI [14] was > 100 µM, the GI50 [15] was > 100 µM and the TGI [15] was > 100 µM. The GI50 [16] was 31.7 µM, the TGI [16] was > 100 µM and the GI50 [17] was 58.9 µM. For the same compound, the TGI [17] was > 100 µM, the GI50 [18] was > 100 µM and the TGI [18] was > 100 µM. The GI50 [19] was > 100 µM, the TGI [19] was > 100 µM and the GI50 [20] was > 100 µM. For the same compound, the TGI [20] was > 100 µM, the GI50 [21] was > 100 µM and the TGI [21] was > 100 µM. It also gave a GI50 [22] of 12.3 µM, a TGI [22] of 45.3 µM and a GI50 [23] of 19.8 µM. For the same compound, the TGI [23] was 42.2 µM, the GI50 [24] was 60.4 µM and the TGI [24] was > 100 µM. For the same compound, the GI50 [25] was 68.8 µM, the TGI [25] was > 100 µM and the GI50 [26] was > 100 µM. For the same compound, the TGI [26] was > 100 µM, the GI50 [27] was > 100 µM and the TGI [27] was > 100 µM. The GI50 [28] was 60 µM, the TGI [28] was > 100 µM and the GI50 [29] was 56.2 µM. For the same compound, the TGI [29] was > 100 µM, the GI50 [30] was 51.1 µM and the TGI [30] was > 100 µM. For the same compound, the GI50 [31] was 46.1 µM, the TGI [31] was > 100 µM and the GI50 [32] was 72.2 µM. For the same compound, the TGI [32] was > 100 µM, the GI50 [33] was 35.2 µM and the TGI [33] was > 100 µM. For the same compound, the GI50 [34] was 18.9 µM, the TGI [34] was 69.1 µM and the GI50 [35] was > 100 µM. The TGI [35] was > 100 µM, the GI50 [36] was 89.1 µM and the TGI [36] was > 100 µM. The GI50 [37] was > 100 µM, the TGI [37] was > 100 µM and the GI50 [38] was > 100 µM. The TGI [38] was > 100 µM, the GI50 [39] was > 100 µM and the TGI [39] was > 100 µM. For the same compound, the GI50 [40] was 35.1 µM, the TGI [40] was > 100 µM and the GI50 [41] was 73.2 µM. The TGI [41] was > 100 µM, the GI50 [42] was > 100 µM and the TGI [42] was > 100 µM. For the same compound, the GI50 [43] was > 100 µM, the TGI [43] was > 100 µM and the GI50 [44] was 45.3 µM. For the same compound, the TGI [44] was > 100 µM, the GI50 [45] was > 100 µM and the TGI [45] was > 100 µM. The GI50 [46] was > 100 µM, the TGI [46] was > 100 µM and the GI50 [47] was 25.8 µM. For the same compound, the TGI [47] was 83.2 µM, the GI50 [48] was > 100 µM and the TGI [48] was > 100 µM. For the same compound, the GI50 [49] was > 100 µM, the TGI [49] was > 100 µM and the GI50 [50] was 48.4 µM. For the same compound, the TGI [50] was > 100 µM, the GI50 [51] was > 100 µM and the TGI [51] was > 100 µM. For the same compound, the GI50 [52] was 34.7 µM, the TGI [52] was > 100 µM and the GI50 [53] was > 100 µM. The TGI [53] was > 100 µM, the GI50 [54] was > 100 µM and the TGI [54] was > 100 µM. The GI50 [55] was 40.3 µM, the TGI [55] was > 100 µM and the GI50 [56] was 59 µM. For the same compound, the TGI [56] was > 100 µM, the GI50 [57] was > 100 µM and the TGI [57] was > 100 µM. For the same compound, the GI50 [58] was 41.7 µM and the TGI [58] was > 100 µM.
